Converted amounts (≈) assume the structure as drawn.
Legend:
[1] = system: Plasmodium falciparum; assay: microbe, parasite or virus in culture; conditions: W2
[2] = system: Plasmodium falciparum; assay: Antiplasmodial activity against Plasmodium falciparum CSL-2 harboring DHFR NRNL haplotype C59R/S108N/I164L triple mutant; format: functional, organism-based
[3] = system: Plasmodium falciparum; assay: microbe, parasite or virus in culture; conditions: TM4/8.2
[4] = system: Plasmodium falciparum; assay: microbe, parasite or virus in culture; conditions: K1CB1
[5] = system: Plasmodium falciparum; assay: Antiplasmodial activity against Plasmodium falciparum V1/S harboring DHFR IRNL haplotype N51I/C59R/S108N/I164L quadruple mutant; format: functional, organism-based
[6] = target: T1, Dihydrofolate reductase (Homo sapiens, UniProt P00374)
T1 sequence (P00374 whole entry): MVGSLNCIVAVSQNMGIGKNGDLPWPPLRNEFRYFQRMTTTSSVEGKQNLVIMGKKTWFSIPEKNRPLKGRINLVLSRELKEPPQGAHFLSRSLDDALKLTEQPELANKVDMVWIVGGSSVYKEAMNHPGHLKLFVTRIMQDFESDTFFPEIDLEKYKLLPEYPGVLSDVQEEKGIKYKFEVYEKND

[7] = system: Vero; assay: Cytotoxicity against African green monkey Vero cells; format: cell-based; conditions: chlorocebus sabaeus
[8] = Solubility of the compound; format: physicochemical
[9] = Inhibition of Plasmodium falciparum TM4/8.2 wild type DHFR NCSI haplotype

SMILES	IC50 [1]	IC50 [2]	IC50 [3]	IC50 [4]	IC50 [5]	Ki [6]	Activity [7]	solubility [8]	Ki [9]
CCc1nc(N)nc(N)c1-c1cccc(Cl)c1	3940 nM	2530 nM	420 nM	1310 nM	9100 nM	1.6 nM	7 µM	–	–
Cc1nc(N)nc(N)c1OCCCOc1cc(Cl)c(Cl)cc1Cl	–	–	230 nM	–	3500 nM	–	–	–	–
CCc1nc(N)nc(N)c1OCCCOc1ccc(-c2c(N)nc(N)nc2CC)cc1	–	–	–	–	–	–	–	1 µM (≈ 0.425 µg/mL)	–
CCc1nc(N)nc(N)c1-c1ccc(Cl)cc1 [PYRIMETHAMINE]	–	42000 nM	–	–	> 100000 nM	–	–	–	0.6 nM

From ChEMBL document CHEMBL4325930, “Hybrid Inhibitors of Malarial Dihydrofolate Reductase with Dual Binding Modes That Can Forestall Resistance” (ACS Med Chem Lett, 2018)
